Experimental data reported in US20170355687A1, “ANTIBACTERIAL BENZOTHIAZOLE DERIVATIVES” (Actelion Pharmaceuticals Ltd, priority 2014, published 2017).
Values after ≈ are worked out from the molar mass of the structure shown. Counter-ions that a name gives are not always drawn. Like-named read-outs stand apart in the source and are kept apart here.

Legend:
Assay in all cases: Bacterial growth minimal inhibitory concentration, microdilution in cation-adjusted Mueller-Hinton Broth (CLSI M7-A7)
Format in all cases: cell-based
E. coli ATCC25922 = conditions: Escherichia coli
Experimental: (§1) Minimal Inhibitory Concentrations (MICs; mg/L) were determined in cation-adjusted Mueller-Hinton Broth by a microdilution method following the description given in “Methods for Dilution Antimicrobial Susceptibility Tests for Bacteria that Grow Aerobically”, Approved standard, 7th ed., Clinical and Laboratory Standards Institute (CLSI) Document M7-A7, Wayne, Pa., USA (2006).
(§2) All Example compounds were tested against several Gram-positive and Gram-negative bacteria. […] K pneumoniae A-651 is a multiply-resistant (in particular quinolone-resistant) strain, while E. coli ATCC25922 and P. aeruginosa ATCC27853 are quinolone-sensitive strains.

P. aeruginosa ATCC27853 = conditions: Pseudomonas aeruginosa
Experimental: as §1, §2

K. Pneumoniae A-651 = conditions: Klebsiella pneumoniae, read-out: MIC for K. Pneumoniae A-651
Experimental: as §1, §2

[1] = ATCC25922, quinolone-sensitive strain, read-out: MIC for E. coli ATCC25922
[2] = ATCC27853, quinolone-sensitive strain, read-out: MIC for P. aeruginosa ATCC27853
[3] = multiply-resistant (in particular quinolone-resistant) strain

Row | SMILES | MIC (E. coli ATCC25922; [1]) [µg/mL] | MIC (P. aeruginosa ATCC27853; [2]) [µg/mL] | MIC (K. Pneumoniae A-651; [3]) [µg/mL] | MIC (E. coli ATCC25922; ATCC25922, read-out: MIC for E. coli ATCC25922) [µg/mL] | MIC (P. aeruginosa ATCC27853; ATCC27853, read-out: MIC for P. aeruginosa ATCC27853) [µg/mL] | MIC (K. Pneumoniae A-651) [µg/mL]
1 | C[C@@](CCc1nc2ccc(C#CC#CC3(O)CCOCC3)cc2s1)(C(=O)NO)S(C)(=O)=O [Example 18, (R)-N-hydroxy-4-(6-((4-hydroxytetrahydro-2H-pyran-4-yl)buta-1,3-diyn-1-yl)benzo[d]thiazol-2-yl)-2-methyl-2-(methylsulfonyl)butanamide] | 1 (≈ 2.1 µM) | 2 (≈ 4.2 µM) | 2 (≈ 4.2 µM) |  |  | 
2 | CC(C)(N)C#CC#Cc1ccc2nc(CC[C@](C)(C(=O)NO)S(C)(=O)=O)sc2c1 [Example 6, (R)-4-(6-(5-amino-5-methylhexa-1,3-diyn-1-yl)benzo[d]thiazol-2-yl)-N-hydroxy-2-methyl-2-(methylsulfonyl)butanamide] | 0.25 (≈ 0.577 µM) | 1 (≈ 2.31 µM) | 1 (≈ 2.31 µM) |  |  | 
3 | C[C@@](CCc1nc2ccc(C#CC#CC3CCN(C(=O)CO)CC3)cc2s1)(C(=O)NO)S(C)(=O)=O [Example 22, (R)-N-hydroxy-4-(6-((1-(2-hydroxyacetyl)piperidin-4-yl)buta-1,3-diyn-1-yl)benzo[d]thiazol-2-yl)-2-methyl-2-(methylsulfonyl)butanamide] | 0.5 (≈ 0.966 µM) | 2 (≈ 3.86 µM) | 1 (≈ 1.93 µM) |  |  | 
4 | C[C@@](CCc1nc2ccc(C#CC#CC3(N)CC3)cc2s1)(C(=O)NO)S(C)(=O)=O [Example 10, (R)-4-(6-((1-aminocyclopropyl)buta-1,3-diyn-1-yl)benzo[d]thiazol-2-yl)-N-hydroxy-2-methyl-2-(methylsulfonyl)butanamide hydrochloride] |  |  |  | 0.125 | 1 | 0.25
5 | C[C@@](CCc1nc2ccc(C#Cc3ccc(C4(CO)CC4)cc3)cc2s1)(C(=O)NO)S(C)(=O)=O [Example 11, (R)-N-hydroxy-4-(6-((4-(1-(hydroxymethyl)cyclopropyl)phenyl)ethynyl)benzo[d]thiazol-2-yl)-2-methyl-2-(methylsulfonyl)butanamide] | 0.125 (≈ 0.251 µM) | 4 (≈ 8.02 µM) | 0.5 (≈ 1 µM) |  |  | 
6 | CC(CCc1nc2ccc(C#Cc3ccc(C4(N)COC4)cc3)cc2s1)(C(=O)NO)S(C)(=O)=O.Cc1ccc(S(=O)(=O)O)cc1 (racemic) [RE3, (RS)-4-(6-((4-(3-aminooxetan-3-yl)phenyl)ethynyl)-benzo[d]thiazol-2-yl)-N-hydroxy-2-methyl-2-(methylsulfonyl)butanamide 4-methyl-benzenesulfonate] | 4 | 8 | 1 |  |  | 
7 | CC(CCc1nc2ccc(C#Cc3ccc(CO)cc3)cc2s1)(C(=O)NO)S(C)(=O)=O (racemic) [RE2, (RS)-N-hydroxy-4-(6-((4-(hydroxymethyl)phenyl)ethynyl)benzo[d]thiazol-2-yl)-2-methyl-2-(methylsulfonyl)butanamide] | 0.125 (≈ 0.273 µM) | 16 (≈ 34.9 µM) | 0.5 (≈ 1.09 µM) |  |  | 
8 | C[C@@](CCc1nc2ccc(C#CC#CC3(N)COC3)cc2s1)(C(=O)NO)S(C)(=O)=O [Example 9, (R)-4-(6-((3-aminooxetan-3-yl)buta-1,3-diyn-1-yl)benzo[d]thiazol-2-yl)-N-hydroxy-2-methyl-2-(methylsulfonyl)butanamide] | 1 (≈ 2.23 µM) | 2 (≈ 4.47 µM) | 2 (≈ 4.47 µM) |  |  | 

Second part, led by results:

Row | MIC (E. coli ATCC25922; [1]) [µg/mL] | MIC (P. aeruginosa ATCC27853; [2]) [µg/mL] | MIC (K. Pneumoniae A-651; [3]) [µg/mL] | SMILES | MIC (E. coli ATCC25922; ATCC25922, read-out: MIC for E. coli ATCC25922) [µg/mL] | MIC (P. aeruginosa ATCC27853; ATCC27853, read-out: MIC for P. aeruginosa ATCC27853) [µg/mL] | MIC (K. Pneumoniae A-651) [µg/mL]
9 | 1 (≈ 2.29 µM) | 1 (≈ 2.29 µM) | 8 (≈ 18.3 µM) | C[C@@](CCc1nc2ccc(C#CC#C[C@H](O)CO)cc2s1)(C(=O)NO)S(C)(=O)=O [Example 5, (R)-4-(6-((S)-5,6-dihydroxyhexa-1,3-diyn-1-yl)benzo[d]thiazol-2-yl)-N-hydroxy-2-methyl-2-(methylsulfonyl)butanamide] |  |  | 
10 | ≤ 0.063 | 0.5 (≈ 1.08 µM) | 0.25 (≈ 0.538 µM) | C[C@@](CCc1nc2ccc(C#CC#C[C@@]3(F)C[C@@H]3CO)cc2s1)(C(=O)NO)S(C)(=O)=O (relative stereo) [Example 23, (R)-4-(6-(((1R*,2R*)-1-fluoro-2-(hydroxymethyl)cyclopropyl)buta-1,3-diyn-1-yl)benzo[d]thiazol-2-yl)-N-hydroxy-2-methyl-2-(methylsulfonyl)butanamide] |  |  | 
11 | 0.125 (≈ 0.288 µM) | 2 (≈ 4.61 µM) | 0.25 (≈ 0.577 µM) | CN(C)CC#CC#Cc1ccc2nc(CC[C@](C)(C(=O)NO)S(C)(=O)=O)sc2c1 [Example 17, (R)-4-(6-(5-(dimethylamino)penta-1,3-diyn-1-yl)benzo[d]thiazol-2-yl)-N-hydroxy-2-methyl-2-(methylsulfonyl)butanamide] |  |  | 
12 | 0.25 (≈ 0.56 µM) | 0.5 (≈ 1.12 µM) | 0.5 (≈ 1.12 µM) | C[C@@](CCc1nc2ccc(C#CC#CC3(CO)CC3)cc2s1)(C(=O)NO)S(C)(=O)=O [Example 8, (R)-N-hydroxy-4-(6-((1-(hydroxymethyl)cyclopropyl)buta-1,3-diyn-1-yl)benzo[d]thiazol-2-yl)-2-methyl-2-(methylsulfonyl)butanamide] |  |  | 
13 | 0.063 (≈ 0.136 µM) | 0.25 (≈ 0.538 µM) | 0.125 (≈ 0.269 µM) | C[C@@](CCc1nc2ccc(C#CC#C[C@H]3C[C@]3(F)CO)cc2s1)(C(=O)NO)S(C)(=O)=O [Example 27, (R)-4-(6-(((1R,2R)-2-fluoro-2-(hydroxymethyl)cyclopropyl)buta-1,3-diyn-1-yl)benzo[d]thiazol-2-yl)-N-hydroxy-2-methyl-2-(methylsulfonyl)butanamide] |  |  | 
14 | 0.125 (≈ 0.271 µM) | 2 (≈ 4.34 µM) | 0.5 (≈ 1.09 µM) | C[C@@](CCc1nc2ccc(C#CC#CC3(CO)CCC3)cc2s1)(C(=O)NO)S(C)(=O)=O [Example 12, (R)-N-hydroxy-4-(6-((1-(hydroxymethyl)cyclobutyl)buta-1,3-diyn-1-yl)benzo[d]thiazol-2-yl)-2-methyl-2-(methylsulfonyl)butanamide] |  |  | 
15 | ≤ 0.063 | 0.5 (≈ 1.12 µM) | 0.125 (≈ 0.28 µM) | C[C@@](CCc1nc2ccc(C#CC#C[C@H]3C[C@@H]3CO)cc2s1)(C(=O)NO)S(C)(=O)=O [Example 7, (R)-N-hydroxy-4-(6-(((1S,2S)-2-(hydroxymethyl)cyclopropyl)buta-1,3-diyn-1-yl)benzo[d]thiazol-2-yl)-2-methyl-2-(methylsulfonyl)butanamide] |  |  | 
16 | 8 (≈ 17.4 µM) | 4 (≈ 8.7 µM) | 16 (≈ 34.8 µM) | C[C@@](CCc1nc2ccc(C#CC#CC3CCNCC3)cc2s1)(C(=O)NO)S(C)(=O)=O [Example 19, (R)-N-hydroxy-2-methyl-2-(methylsulfonyl)-4-(6-(piperidin-4-ylbuta-1,3-diyn-1-yl)benzo[d]thiazol-2-yl)butanamide] |  |  | 
17 | 0.125 (≈ 0.271 µM) | 1 (≈ 2.17 µM) | 0.5 (≈ 1.09 µM) | C[C@@]1(C#CC#Cc2ccc3nc(CC[C@](C)(C(=O)NO)S(C)(=O)=O)sc3c2)C[C@H]1CO [Example 15, (R)-N-hydroxy-4-(6-(((1R,2R)-2-(hydroxymethyl)-1-methylcyclopropyl)buta-1,3-diyn-1-yl)benzo[d]thiazol-2-yl)-2-methyl-2-(methylsulfonyl)butanamide] |  |  | 
18 | 0.25 (≈ 0.557 µM) | 1 (≈ 2.23 µM) | 0.25 (≈ 0.557 µM) | C[C@@](CCc1nc2ccc(C#CC#CC3(O)COC3)cc2s1)(C(=O)NO)S(C)(=O)=O (single isomer, unassigned) [Example 1] |  |  | 
19 | 0.5 (≈ 1.08 µM) | 1 (≈ 2.16 µM) | 1 (≈ 2.16 µM) | C[C@@](CCc1nc2ccc(C#CC#CCC3(O)COC3)cc2s1)(C(=O)NO)S(C)(=O)=O [Example 14, (R)-N-hydroxy-4-(6-(5-(3-hydroxyoxetan-3-yl)penta-1,3-diyn-1-yl)benzo[d]thiazol-2-yl)-2-methyl-2-(methylsulfonyl)butanamide] |  |  | 
